Source: patent US7939537B2, “HIV integrase inhibitors” (Istituto Di Ricerche Di Biologia Molecolare P. Angeletti …, priority 2006, dated 2011)

Tested on: HIV
Test: Assay for inhibition of HIV replication (spread assay; acute HIV infection of T-lymphoid cells)
Type: cell-based
Conditions: Human immunodeficiency virus 1, tested up to 1 micromolar
Description: Assay for Inhibition of HIV Replication
Assays for the inhibition of acute HIV infection of T-lymphoid cells were conducted in accordance with Vacca, J. P. et al., Proc. Natl. Acad. Sci. USA 1994, 91: 4096. […] The compounds of Examples 6, 8, 9, 14, 15, 21-23 and 29-35 were also tested in the spread assay up to 1 micromolar, but specific IC95 values were not obtained; i.e., the IC95 values for these compounds are greater than 1 micromolar.

SMILES: O=C(NCc1ccc(F)cc1)c1nc2ccccn2c(=O)c1O [Example 1, N-(4-Fluorobenzyl)-3-hydroxy-4-oxo-4H-pyrido[1,2-a]pyrimidine-2-carboxamide]
- IC95: < 1000 nM

SMILES: CN(C(=O)CS(C)(=O)=O)c1cccn2c(=O)c(O)c(C(=O)NCc3ccc(F)cc3)nc12 [Example 2, N-(4-fluorobenzyl)-3-hydroxy-9-{methyl[(methylsulfonyl)acetyl]amino}-4-oxo-4H-pyrido[1,2-a]pyrimidine-2-carboxamide]
- IC95: < 1000 nM

SMILES: CCN(CC)C(=O)C(=O)N(CC)c1cccn2c(=O)c(O)c(C(=O)NCc3ccc(F)cc3)nc12 [Example 3, N-(4-fluorobenzyl)-3-hydroxy-9-[(N,N,N′-triethyl)-ethanediamide]-4-oxo-4H-pyrido[1,2-a]pyrimidine-2-carboxamide]
- IC95: < 1000 nM

SMILES: O=C(NCc1ccc(F)cc1)c1nc2c(OCc3ccccc3)cccn2c(=O)c1O [Example 4, N-(4-fluorobenzyl)-3-hydroxy-9-(benzyloxy)-4-oxo-4H-pyrido[1,2-a]pyrimidine-2-carboxamide]
- IC95: < 1000 nM

SMILES: O=C(NCc1ccc(F)cc1)c1nc2ccc(-c3ccccc3N3CCOCC3)cn2c(=O)c1O [Example 5]
- IC95: < 1000 nM

SMILES: CC(=O)N(C)c1cccn2c(=O)c(O)c(C(=O)NCc3ccc(F)cc3)nc12 [Example 6, 9-[acetyl(methyl)amino]-N-(4-fluorobenzyl)-3-hydroxy-4-oxo-4H-pyrido[1,2-a]pyrimidine-2-carboxamide]
- IC95: > 1000 nM

SMILES: CN(C(=O)c1ccccc1)c1cccn2c(=O)c(O)c(C(=O)NCc3ccc(F)cc3)nc12 [Example 7, 9-[benzoyl(methyl)amino]-N-(4-fluorobenzyl)-3-hydroxy-4-oxo-4H-pyrido[1,2-a]pyrimidine-2-carboxamide]
- IC95: < 1000 nM

SMILES: CNc1cccn2c(=O)c(O)c(C(=O)NCc3ccc(F)cc3)nc12 [Example 8, 9-[methylamino]-N-(4-fluorobenzyl)-3-hydroxy-4-oxo-4H-pyrido[1,2-a]pyrimidine-2-carboxamide]
- IC95: > 1000 nM

SMILES: CN(C)c1cccn2c(=O)c(O)c(C(=O)NCc3ccc(F)cc3)nc12 [Example 9, 9-[dimethylamino]-N-(4-fluorobenzyl)-3-hydroxy-4-oxo-4H-pyrido[1,2-a]pyrimidine-2-carboxamide]
- IC95: > 1000 nM

SMILES: CCNc1cccn2c(=O)c(O)c(C(=O)NCc3ccc(F)cc3)nc12 [Example 10, 9-[ethylamino]-N-(4-fluorobenzyl)-3-hydroxy-4-oxo-4H-pyrido[1,2-a]pyrimidine-2-carboxamide]
- IC95: < 1000 nM

SMILES: CN(C)C(=O)C(=O)N(C)c1cccn2c(=O)c(O)c(C(=O)NCc3ccc(F)cc3)nc12 [Example 11, N-(2-{[(4-fluorobenzyl)amino]carbonyl}-3-hydroxy-4-oxo-4H-pyrido[1,2-a]pyrimidin-9-yl)-N,N′,N′-trimethylethanediamide]
- IC95: < 1000 nM

SMILES: CCN(C(=O)C(=O)N(C)C)c1cccn2c(=O)c(O)c(C(=O)NCc3ccc(F)cc3)nc12 [Example 12, N-(2-{[(4-fluorobenzyl)amino]carbonyl}-3-hydroxy-4-oxo-4H-pyrido[1,2-a]pyrimidin-9-yl)-N-ethyl-N′,N′-dimethylethanediamide]
- IC95: < 1000 nM

SMILES: O=C(Nc1cccn2c(=O)c(O)c(C(=O)NCc3ccc(F)cc3)nc12)OCc1ccccc1 [Example 13, benzyl (2-{[(4-fluorobenzyl)amino]carbonyl}-3-hydroxy-4-oxo-4H-pyrido[1,2-a]pyrimidin-9-yl)carbamate]
- IC95: < 1000 nM

SMILES: O=C(Nc1cccn2c(=O)c(O)c(C(=O)NCc3ccc(F)cc3)nc12)c1ccccc1 [Example 14, 9-[benzoylamino]-N-(4-fluorobenzyl)-3-hydroxy-4-oxo-4H-pyrido[1,2-a]pyrimidine-2-carboxamide]
- IC95: > 1000 nM

SMILES: CCN(C(=O)c1ccncc1)c1cccn2c(=O)c(O)c(C(=O)NCc3ccc(F)cc3)nc12 [Example 15, 9-[ethyl(isonicotinoyl)amino]-N-(4-fluorobenzyl)-3-hydroxy-4-oxo-4H-pyrido[1,2-a]pyrimidine-2-carboxamide]
- IC95: > 1000 nM

SMILES: CCN(C(=O)c1ccccn1)c1cccn2c(=O)c(O)c(C(=O)NCc3ccc(F)cc3)nc12 [Example 16, 9-[ethyl(pyridin-2-ylcarbonyl)amino]-N-(4-fluorobenzyl)-3-hydroxy-4-oxo-4H-pyrido[1,2-a]pyrimidine-2-carboxamide]
- IC95: < 1000 nM

SMILES: CCCN(C(=O)C(=O)N(C)C)c1cccn2c(=O)c(O)c(C(=O)NCc3ccc(F)cc3)nc12 [Example 17, N-(2-{[(4-fluorobenzyl)amino]carbonyl}-3-hydroxy-4-oxo-4H-pyrido[1,2-a]pyrimidin-9-yl)-N-propyl-N′,N′-dimethylethanediamide]
- IC95: < 1000 nM

SMILES: CC(C)CN(C(=O)C(=O)N(C)C)c1cccn2c(=O)c(O)c(C(=O)NCc3ccc(F)cc3)nc12 [Example 18, N-(2-{[(4-fluorobenzyl)amino]carbonyl}-3-hydroxy-4-oxo-4H-pyrido[1,2-a]pyrimidin-9-yl)-N-isobutyl-N′,N′-dimethylethanediamide]
- IC95: < 1000 nM

SMILES: CCN(C(=O)C(=O)N1CCOCC1)c1cccn2c(=O)c(O)c(C(=O)NCc3ccc(F)cc3)nc12 [Example 19, N-(4-fluorobenzyl)-3-hydroxy-9-{ethyl[morpholin-4-yl(oxo)acetyl]amino}-4-oxo-4H-pyrido[1,2-a]pyrimidine-2-carboxamide]
- IC95: < 1000 nM

SMILES: CCN(C(=O)CN(C)C)c1cccn2c(=O)c(O)c(C(=O)NCc3ccc(F)cc3)nc12 [Example 20, 9-[(N,N-dimethylglycyl)(ethyl)amino]-N-(4-fluorobenzyl)-3-hydroxy-4-oxo-4H-pyrido[1,2-a]pyrimidine-2-carboxamide]
- IC95: < 1000 nM

SMILES: CCN(CC)CC(=O)N(CC)c1cccn2c(=O)c(O)c(C(=O)NCc3ccc(F)cc3)nc12 [Example 21, 9-[(N,N-diethylglycyl)(ethyl)amino]-N-(4-fluorobenzyl)-3-hydroxy-4-oxo-4H-pyrido[1,2-a]pyrimidine-2-carboxamide]
- IC95: > 1000 nM

SMILES: CCN(C(=O)CN1CCOCC1)c1cccn2c(=O)c(O)c(C(=O)NCc3ccc(F)cc3)nc12 [Example 22, 9-[ethyl(morpholin-4-ylacetyl)amino]-N-(4-fluorobenzyl)-3-hydroxy-4-oxo-4H-pyrido[1,2-a]pyrimidine-2-carboxamide]
- IC95: > 1000 nM

SMILES: CCN(C(=O)CN1CCN(C)CC1)c1cccn2c(=O)c(O)c(C(=O)NCc3ccc(F)cc3)nc12 [Example 23, 9-{ethyl[(4-methylpiperazin-1-yl)acetyl]amino}-N-(4-fluorobenzyl)-3-hydroxy-4-oxo-4H-pyrido[1,2-a]pyrimidine-2-carboxamide]
- IC95: > 1000 nM

SMILES: CCN(C(=O)c1cscn1)c1cccn2c(=O)c(O)c(C(=O)NCc3ccc(F)cc3)nc12 [Example 24, 9-[ethyl(1,3-thiazol-4-ylcarbonyl)amino]-N-(4-fluorobenzyl)-3-hydroxy-4-oxo-4H-pyrido[1,2-a]pyrimidine-2-carboxamide]
- IC95: < 1000 nM

SMILES: CCN(C(=O)c1ccno1)c1cccn2c(=O)c(O)c(C(=O)NCc3ccc(F)cc3)nc12 [Example 25, 9-[ethyl(isoxazol-5-ylcarbonyl)amino]-N-(4-fluorobenzyl)-3-hydroxy-4-oxo-4H-pyrido[1,2-a]pyrimidine-2-carboxamide]
- IC95: < 1000 nM
